Measurements reported in PubChem BioAssay AID1996.
Converted amounts (≈) assume the structure as drawn.

settings: buffer; pH 7.4; 200.0 µM

solubility kinetic [µg/mL] | SMILES
46 (≈ 143 µM) | CCOC(=O)C1CCCN(C(=S)Nc2ccc(OC)cc2)C1 (configuration not stated)
41 (≈ 143 µM) | Nc1nc(CCl)nc(Nc2cccc3ccccc23)n1
> 49.1 | Cc1ccc(OCC(=O)NCCCNC(=O)c2ccccn2)cc1
1.7 (≈ 6.02 µM) | Cc1c(-c2nc(-c3ccncc3)no2)cccc1[N+](=O)[O-]
> 36 | Cc1ccc(NC(=O)N(C)c2ccccc2)cc1
30.4 (≈ 98.6 µM) | COc1ccc(CN(C)C(=O)Cc2c[nH]c3ccccc23)cc1
11.3 (≈ 47.6 µM) | O=C1/C(=C/c2ccccn2)COc2ccccc21
5.5 (≈ 19 µM) | CCOc1cc(OCC)cc(C(=O)NCc2ccco2)c1
1.3 (≈ 4.01 µM) | Cc1ccc(C)c(OCC(=O)Nc2ccccc2N2CCCC2)c1
46.3 (≈ 145 µM) | Nc1nc(NCCc2ccccc2)nc(NCCO)c1[N+](=O)[O-]
> 44.9 | Cc1cc(C(=O)NCCN2CCOCC2)c2ccccc2n1
> 49.2 | O=C(CNC(=O)c1ccc(OC(F)F)cc1)NCC1CCCO1 (configuration not stated)
49.9 (≈ 139 µM) | NC(=O)NC(CC(=O)N1CCc2ccccc2C1)c1ccc(Cl)cc1 (configuration not stated)
2.9 (≈ 8.55 µM) | CCn1cc(C(=O)NCc2ccccc2F)c(=O)c2ccc(C)nc21
2.3 (≈ 6.74 µM) | Cc1cccc(C2C3=C(CCCC3=O)N=C3c4ccccc4C(=O)C32)c1 (configuration not stated)
2.8 (≈ 8.88 µM) | O=[N+]([O-])c1cccc(Nc2c3ccccc3nc3ccccc23)c1
8.7 (≈ 32.9 µM) | COc1cccc(Nc2cc(C)c3ccccc3n2)c1
> 32.9 | O=C(OCc1cncs1)c1ccccc1
13.6 (≈ 52.2 µM) | CC(C)Cc1cc(C(=O)Nc2cccc(O)c2)no1
25.5 (≈ 89.4 µM) | CC(C)Oc1ccc(CNC(=O)Oc2ccccc2)cc1
16 (≈ 61.9 µM) | Cc1csc(NC(=O)c2cc3ccccc3o2)n1

solubility kinetic [µg/mL] | SMILES
34.4 (≈ 110 µM) | Clc1ccc2c(c1)C(N1CCNCC1)=Nc1ccccc1O2
0.7 (≈ 2.37 µM) | COc1ccc(-n2c(C)cc3cc(OC(C)=O)ccc32)cc1
< 0.7 | CCOC(=O)C1CCCCN1Cc1cccc(Oc2ccccc2)c1 (configuration not stated)
30.7 (≈ 93.8 µM) | O=C(NCCNC(=O)c1ccc(Cl)cc1Cl)c1ccco1
44.4 (≈ 137 µM) | Cc1c(C(=O)c2ccc(F)cc2F)c2ccccn2c1CCC#N
1.2 (≈ 2.87 µM) | Cc1cc(NC(=O)c2cc(-c3ccncc3)nc3ccccc23)ccc1Br
> 26.7 | CNCc1sccc1C.Cl
5.4 (≈ 18.3 µM) | COc1ccc(N2C(=O)c3ccccc3C(C)(C)C2=O)cc1
> 51.4 | O=C(CSc1nc2cc(Cl)ccc2s1)NCC1CCCO1 (configuration not stated)
> 41.3 | CCc1c(SCCC(=O)O)nc2ccccc2c1C
> 48.4 | COc1ccc(C(=O)O)cc1S(=O)(=O)NCc1cccnc1
> 37.3 | Cc1ccccc1NC(=S)N1CCCCCC1
> 41.5 | CC(=O)c1ccc(NC(=S)N2CCCCCC2)cc1
> 51.4 | Cc1cccc(NC(=S)N(CCN(C)C)C(C)c2cccnc2)c1 (configuration not stated)
1.6 (≈ 6.52 µM) | Cc1cccc(NC(=O)Nc2ccc(F)cc2)n1
47.2 (≈ 144 µM) | CC(C)CC(=O)N1CCN(Cc2ccc(C(F)(F)F)cc2)CC1
43.3 (≈ 145 µM) | COc1ccc(CN2CCCCCC2)cc1Br
> 39.4 | O=S(=O)(c1ccc(Cl)nc1)N1CCOCC1
> 27.2 | CC(=O)NNc1cc(C)nc(N)n1
0.9 (≈ 2.61 µM) | CCCc1nc(SCC(=O)Nc2nccs2)c2ccccc2n1
> 47.6 | Cc1cc(C)cc(C(=O)NCC(=O)N2CCC(C(N)=O)CC2)c1

solubility kinetic [µg/mL] | SMILES
43 (≈ 146 µM) | CCC(CC)C(=O)OCC(=O)Nc1cccc([N+](=O)[O-])c1
3.1 (≈ 11.2 µM) | O=C(Nc1ccccc1)c1cc([N+](=O)[O-])ccc1Cl
< 0.6 | CCCN(CCC)Cc1cc(=O)oc2cc3c(cc12)CCC3
13.8 (≈ 42.8 µM) | CN(Cc1cc2ccccc2[nH]c1=O)C(=O)COc1ccccc1
48.8 (≈ 140 µM) | O=C(COC(=O)C1C2CC3OC(=O)C1C3C2)Nc1ccc(Cl)cc1 (configuration not stated)
> 49.9 | CS(=O)(=O)N(CC(=O)N1CCOCC1)c1ccc(Cl)cc1
31.4 (≈ 111 µM) | O=C(COc1ccccc1Cl)N1CCCCCCC1
38.3 (≈ 117 µM) | COc1ccc(CC(=O)N2CCN(c3ccc(F)cc3)CC2)cc1
> 48.4 | COc1ccc(COCC(O)CN2CCC(C(N)=O)CC2)cc1 (configuration not stated)
19.2 (≈ 62.9 µM) | CC(=O)Nc1cccc(NC(=O)c2cccc3cccnc23)c1
1.3 (≈ 4.29 µM) | N/C(=N\OC(=O)c1cccc(F)c1)c1cccc([N+](=O)[O-])c1
> 53.5 | NS(=O)(=O)c1ccc(CCNC(=O)c2ccc3nccnc3c2)cc1
37.9 (≈ 116 µM) | CCNC(=S)Nc1cccc(S(=O)(=O)NC2=NCCC2)c1
> 44.7 | O=C(OCC(=O)N1CCCC1=O)c1cc(Cl)ccc1O
0.7 (≈ 2.69 µM) | CCCCC(=O)N/C(N)=N/c1nc2ccccc2o1
> 40.1 | COCCCNC(=S)N/N=C/c1ccc(O)cc1
> 49 | Cc1ccc(NC(=O)CCCc2nc3ccccc3s2)c(O)c1
26.4 (≈ 77.1 µM) | CC(C)[C@H](NC(=O)c1ccccc1F)C(=O)NCCc1ccccc1
1.5 (≈ 4.53 µM) | O=C(Cn1c(=O)oc2ccccc21)NCCc1ccccc1Cl

SMILES | solubility kinetic [µg/mL]
Cc1ccc(C2N3CCCN23)cc1 (configuration not stated) | > 26.1
